Test results reported in patent publication US7186672B2, “Fungicidal mixtures” (BASF Aktiengesellschaft, priority 2001, dated 2007).

Tested on: Erysiphe [syn. Blumeria] graminis forma specialis tritici
Experiment: Protective activity against mildew of wheat (potted wheat seedlings, greenhouse)
Format: in vivo
Settings: wheat cv. Kanzler, 7 days
Experimental: The active compounds, separately or together, were formulated as a 10% emulsion in a mixture of 63% by weight of cyclohexanone and 27% by weight of emulsifier, and diluted with water to the desired concentration.
Evaluation was carried out by determining the infected leaf areas in percent. These percentages were converted into efficacies. The efficacy (W) was calculated as follows using Abbot's formula: […] • α corresponds to the fungal infection of the treated plants in % and • β corresponds to the fungal infection of the untreated (control) plants in %
An efficacy of 0 means that the infection level of the treated plants corresponds to that of the untreated control plants; an efficacy of 100 means that the treated plants were not infected.
The expected efficacies of the mixtures of the active compounds were determined using Colby's formula [R. S. Colby, Weeds 15, 20–22 (1967)] and compared with the observed efficacies. Colby's formula: E=x+y−x·y/100 • E expected efficacy, expressed in % of the untreated control, when using the mixture of the active compounds A and B at the concentrations a and b • x efficacy, expressed in % of the untreated control, when using active compound A at a concentration of a • y efficacy, expressed in % of the untreated control, when using active compound B at a concentration of b.
Protective Activity Against Mildew of Wheat Caused by Erysiphe [syn. Blumeria] graminis forma specialis tritici
Leaves of potted wheat seedlings of the cultivar “Kanzler” were sprayed to runoff point with an aqueous preparation of active compound which had been prepared from a stock solution made of 10% of active compound, 85% of cyclohexanone and 5% of emulsifier and, 24 hours after the spray coating had dried on, dusted with spores of mildew of wheat (Erysiphe [syn. Blumeria] graminis forma specialis. tritici). The test plants were then placed in a greenhouse at 20–24° C. and 60–90% relative atmospheric humidity. After 7 days, the extent of the mildew development was determined visually in % infection of the total leaf area.
The visually determined percentages of infected leaf area were converted into efficacies as % of the untreated control. An efficacy of 0 means that the infection level of the treated plants corresponds to that of the untreated control; an efficacy of 100 means 0% infection. The expected efficacies of the combinations of active compounds were determined using Colby's formula (Colby, S. R. (Calculating synergistic and antagonistic responses of herbicide Combinations”, Weeds, 15, pp. 20–22, 1967) and compared with the observed efficacies.

[1] = 0.6 ppm active compound in the spray liquor
[2] = 1.25 ppm active compound in the spray liquor

Row | Compound | Efficacy in % of the untreated control (0.3 ppm active compound in the spray liquor) | Efficacy in % of the untreated control [1] | Efficacy in % of the untreated control [2] | Efficacy in % of the untreated control (2.5 ppm active compound in the spray liquor)
1 | Fc1ccc([C@]2(Cn3cncn3)O[C@H]2c2ccccc2Cl)cc1 (racemic) [III.a, (2RS,3SR)-1-[3-(2-chlorophenyl)-2-(4-fluorophenyl)-oxiran-2-ylmethyl]-1H-1,2,4-triazole] | 4% | 4% | 4% | –
2 | pyraclostrobin [II-6] | – | 36% | 47% | 57%
